Source: patent US20130143886A1, “METHODS FOR PRESERVING AND/OR INCREASING RENAL FUNCTION USING XANTHINE OXIDOREDUCTASE INHIBITORS” (priority 2006, published 2013)
Entries after “also recorded” stand apart in the source; their conditions may differ. Marks after values point to notes of the source that are not given here.

What was measured:
[1] = system: hyperuricemic gout patients; test: FOCUS long-term open-label study: eGFR, serum creatinine and serum urate; format: in vivo, human; conditions: for GFR (estimated by MDRD, mean) / sCr (mean) / sUA (mean): all subjects
Description: The objective of this study was to assess the long-term renal function effects, measured as estimated GFR (eGFR), in a cohort of hyperuricemic gout patients treated febuxostat. Febuxostat was administered at a dosing regimen that chronically maintained a serum urate level (sUA) of <6.0 mg/dL. Of 145 subjects completing a 28-day, double-blind, placebo-controlled trial (See, Becker M A, Schumacher H R, Jr., Wortmann R L, MacDonald P A, Palo […], et al., “Febuxostat, a novel nonpurine selective inhibitor of xanthine oxidase: a twenty-eight-day, multicenter, phase II, randomized, double-blind, placebo-controlled, dose-response clinical trial examining safety and efficacy in patients with gout.” Arthritis and rheumatism, March: 52(3):916-23 (2005)), 116 enrolled in the long-term, 5.5 year Febuxostat Open-label Clinical trial of Urate-lowering efficacy and […] (FOCUS) study. Baseline data were collected upon entry to the initial 28-day trial. Subjects initially received febuxostat 80 mg/day; between weeks 4 to 24 the dose of febuxostat could be titrated to 40 or 120 mg/day to maintain a sUA between <6.0 mg/dL but not lower than 3.0 mg/dL. Age 18 to 85 years with a history or presence of gout as defined by the American College of Rheumatology (Wallace S L, Robinson […], Yu T F, “Preliminary criteria for the classification of the acute arthritis of primary gout.” Arthritis and rheumatism. 1977 April; 20(3):895-900 (1977)). sUA level of ≧8.0 mg/dL at screening for the initial 28-day, double-blind study. […] GFR was estimated (eGFR) using the Modification of Diet in Renal Disease (MDRD) equation shown below: […] otherwise, S=0.742 if subject is female and 1 if male. The predictors, time (year), average sUA on study drug, baseline eGRF, and sUA change from baseline were evaluated for a relationship to eGFR change from baseline using a repeated measures linear model. Backwards selection (p=0.1) was used to reduce the model down to those predictors that best explained the eGRF change from baseline.

remnant kidney (RK) rats = test: Renal arteriolar morphology; format: in vivo, Male Wistar rats
Description: Male Wistar rats (295-340 g) were used to produce rats with remnant kidney (RK) as follows. […] Rats were then assigned to one of four treatment groups: Group 1, RK control rats (n=7); Group 2, RK+febuxostat (Fx) rats (n=8); Group 3, RK+oxonic acid (OA) rats (n=6); and Group 4, RK+OA+Fx (n=10). Oxonic acid (OA) (Sigma-Aldrich, St Louis Mo., USA), administered at 750 mg/kg body weight daily by oral gavage, was given starting the day after the 5⁄6 nephrectomy. Beginning immediately following the surgery, febuxostat was administered in drinking water at 30 mg/L (3-4 mg/kg/day), whereas the respective controls received only drinking water (with 3.5 mg/L of NaCl added to keep an equivalent salt concentration to the Fx-containing water). After the micropuncture study, kidneys were washed by perfusion with phosphate-buffered saline and then fixed with 4% paraformaldehyde. Renal biopsies were embedded in paraffin. Sections of 4-μm thick fixed tissue were stained with periodic acid Schiff (PAS) reagent and Masson's trichrome staining. Arteriolar morphology was assessed by indirect peroxidase immunostaining for alpha-smooth muscle actin (DAKO Corp, Carpinteria, Calif., USA). Renal sections incubated with normal rabbit serum were used as negative controls for immunostaining against alpha smooth-muscle actin. For each arteriole, the outline of the vessel and its internal lumen (excluding the endothelium) were generated using computer analysis to calculate the total medial area (outline inline), in 10 arterioles per biopsy. The media/lumen ratio was calculated by the outline/inline relationship (See, Sanchez-Lozada L G et al., “Mild hyperuricemia induces glomerular hypertension in normal rats”, Am J Physiol Renal Physiol 283:[…]-[…] (2002); Sanchez-Lozada L G, et al., “Mild hyperuricemia induces vasoconstriction and maintains glomerular hypertension in normal and remnant kidney rats,” Kidney Int 67:237-247 (2005), the contents of each are herein incorporated by reference). Quantifications were performed blinded.

Compound: Cc1nc(-c2ccc(OCC(C)C)c(C#N)c2)sc1C(=O)O [febuxostat, 2-[3-cyano-4-(2-methylpropoxy)phenyl]-4-methylthiazole-5-carboxylic acid]
- Measures of renal function (GFR estimated by MDRD and sCr) (in words) ([1]; 5-year study period): stable over the 5-year study period
- Baseline eGFR in a subsequent febuxostat study vs FOCUS baseline (in words) ([1]; 18 subjects who completed FOCUS and enrolled in another febuxostat study): all but 1 of these subjects had a baseline eGRF in the new study that was higher
- GFR (estimated by MDRD, mean) ([1]; Year 1 (n = 115)): 65.7 mL/min
- sCr (mean) ([1]; Year 1 (n = 115)): 1.2 mg/dL
- sUA (mean) ([1]; Year 1 (n = 115), excludes initial 28-day trial): 5.1 mg/dL
- GFR (estimated by MDRD, mean) ([1]; Year 2 (n = 84)): 66.0 mL/min
- sCr (mean) ([1]; Year 2 (n = 84)): 1.2 mg/dL
- sUA (mean) ([1]; Year 2 (n = 84)): 5.1^b mg/dL
- GFR (estimated by MDRD, mean) ([1]; Year 3 (n = 71)): 63.2 mL/min
- sCr (mean) ([1]; Year 3 (n = 71)): 1.3 mg/dL
- sUA (mean) ([1]; Year 3 (n = 71)): 5.0 mg/dL
- GFR (estimated by MDRD, mean) ([1]; Year 4 (n = 67)): 64.2 mL/min
- sCr (mean) ([1]; Year 4 (n = 67)): 1.3 mg/dL
- sUA (mean) ([1]; Year 4 (n = 67)): 4.7^b mg/dL
- GFR (estimated by MDRD, mean) ([1]; Year 5 (n = 60)): 65.0 mL/min
- sCr (mean) ([1]; Year 5 (n = 60)): 1.3 mg/dL
- sUA (mean) ([1]; Year 5 (n = 60)): 4.8 mg/dL
- mean serum urate (sUA) ([1]; baseline GFR <60, Year 1): 5.1 mg/dL
- mean serum urate (sUA) ([1]; baseline GFR <60, Year 2): 4.8 mg/dL
- mean serum urate (sUA) ([1]; baseline GFR <60, Year 3): 4.8 mg/dL
- mean serum urate (sUA) ([1]; baseline GFR <60, Year 4): 4.5 mg/dL
- mean serum urate (sUA) ([1]; baseline GFR <60, Year 5): 4.6 mg/dL
- mean serum urate (sUA) ([1]; baseline GFR ≧60, Year 1): 5.2 mg/dL
- mean serum urate (sUA) ([1]; baseline GFR ≧60, Year 2): 5.1 mg/dL
- mean serum urate (sUA) ([1]; baseline GFR ≧60, Year 3): 5.1 mg/dL
- mean serum urate (sUA) ([1]; baseline GFR ≧60, Year 4): 4.7 mg/dL
- mean serum urate (sUA) ([1]; baseline GFR ≧60, Year 5): 4.9 mg/dL
- eGFR benefit (in words) ([1]; limited data obtained during Year 6): even greater evidence of eGFR benefit
- Predicted eGFR improvement for each 1.0 mg/dL reduction in sUA ([1]; modeling, repeated measures linear model): 1.0 mL/min
- Relationship of sUA reduction from baseline to eGFR (in words) ([1]; p=0.02): correlated with greater improvements in eGFR over time
- Maintenance of sUA ([1]; throughout the study, regardless of baseline eGFR): < 6.0 mg/dL
- Thickening of preglomerular vessels / afferent arteriole (in words) (remnant kidney (RK) rats; RK rats vs RK control group): prevented the thickening of preglomerular vessels
- Additional thickening of the afferent arteriole (in words) (remnant kidney (RK) rats; RK+OA rats treated with febuxostat): prevented
- Media/lumen (M/L) ratio (in words) (remnant kidney (RK) rats; febuxostat-treated rats vs respective untreated cohorts): no statistically significant differences; also recorded: tendency for the M/L ratio to be lower
